US20150344978A1, “NICOTINE RESISTANT MICROORGANISMS” (priority 2014, published 2015)

Legend:
[1] = tested on: nicotine resistant yeast strain
Protocol: (§1) In the method, the X-PRESS yeast strain was subjected to a number of selection cycles to generate nicotine resistance. First, the X-PRESS yeast strain was cultured in liquid media (YP medium containing yeast extract (5 g/L); peptone (10 g/L)) to which 1% w/v (10 mg/ml) nicotine was added for 72 hr at 27° C. with shaking 200 rpm. […] After 72 hr, 100 μl of the culture was applied to a 1% w/v nicotine YP agar plate and allowed to grow on the plate at 27° C. for another 72 hr. In the next step, a single colony was inoculated into a 1.5% w/v nicotine YP medium solution and incubated for another 72 hr and the entire process was repeated. This process was repeated multiple times with the concentration of nicotine being increased in increments of 0.5% w/v at each cycle. […] In FIGS. 3A & 3B, the yeast strains were inoculated onto a nicotine-containing culture plate (nicotine 50 mg/ml, yeast extract 5 g/L, peptone 10 g/L and agar 15 g/L) and incubated at 27° C. for 3 days.
To ensure the stability of the nicotine resistance trait, an additional 20 generations of the resistant strain were cultured in the 7.5% w/v nicotine nutrient solution. […] This nicotine resistant Saccharomyces cerevisiae yeast strain was deposited on under the terms of the Budapest Treaty on the International Recognition of the Deposit of Microorganisms for the Purposes of Patent Procedure at the American Type Culture Collection (ATCC) in Manassas, Va., USA and bears the Patent Accession No. ______.

X-PRESS yeast strain = tested on: X-PRESS yeast strain
Protocol: as §1

`CN1CCCC1c1cccnc1` (centres unmarked) [nicotine] was tested, and the “growth of nicotine resistant strain in medium” value [1] was “capable of growing”, the “growth of nicotine resistant yeast” value [1] was “still able to grow” and the “growth of nicotine resistant yeast on nicotine-containing culture plate” value [1] was “grew well”. For the same compound, the “less ethanol production expected” value (yeast; in the presence of 0.5% nicotine) was 21%, the “less sugar consumption by yeast” value (yeast; nicotine 5 mg/ml added into fermentation solution (FIG. 1)) was 21% and the “effect on growth of X-PRESS yeast in liquid YP medium” value (X-PRESS yeast strain; 1% w/v (10 mg/ml) nicotine, 72 hr, 27° C., shaking 200 rpm) was “inhibited the growth rate, but did not kill the yeast”. The “growth of X-PRESS yeast on nicotine-containing culture plate” value (X-PRESS yeast strain; nicotine 50 mg/ml, yeast extract 5 g/L, peptone 10 g/L, agar 15 g/L, 27° C., 3 days) was “No yeast growth could be observed” and the “survival of X-PRESS yeast colonies” value (X-PRESS yeast strain; nicotine concentration of 7.5%) was “no surviving yeast colonies”.
